In ChEMBL document CHEMBL3774353, “Efficacy of peptide nucleic acid and selected conjugates against specific cellular pathologies of amyotrophic lateral sclerosis” (Bioorg Med Chem, 2016) one finds Activity data, which are given here for four molecules.

Sequence of Superoxide dismutase [Cu-Zn] (Homo sapiens) (P00441 whole entry): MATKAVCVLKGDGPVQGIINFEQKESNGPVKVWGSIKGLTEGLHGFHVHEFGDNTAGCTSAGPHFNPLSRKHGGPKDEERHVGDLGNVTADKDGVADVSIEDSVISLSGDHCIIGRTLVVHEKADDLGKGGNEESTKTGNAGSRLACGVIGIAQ

The experiment has as its target Superoxide dismutase [Cu-Zn] (Homo sapiens) (UniProt P00441). Kind of experiment: Binding affinity to human EGFP-tagged SOD1 A4V mutant mRNA expressed in mouse Neuro2a cells assessed as reduction in cells bearing inclusions at 25 uM measured 72 hrs post transfection by Hoechst33342 staining-based epifluorescence microscopic analysis (reference value: 19 to 21%). In kind it is cell-based. More on the design: scale not given: the % may be the effect or the level left.
With `CCOC(=O)C1(C)CCc2c(Cn3cc(CCC(=O)NCCN(CC(=O)NCCN(CC(=O)NCCN(CC(=O)NCCN(CC(=O)NCCN(CC(=O)NCCN(CC(=O)NCCN(CC(=O)NCCN(CC(=O)NCCN(CC(N)=O)C(=O)Cn4cnc5c(=O)[nH]c(N)nc54)C(=O)Cn4ccc(N)nc4=O)C(=O)Cn4cnc5c(N)ncnc54)C(=O)Cn4ccc(N)nc4=O)C(=O)Cn4cnc5c(=O)[nH]c(N)nc54)C(=O)Cn4cnc5c(N)ncnc54)C(=O)Cn4ccc(N)nc4=O)C(=O)Cn4cc(C)c(=O)[nH]c4=O)C(=O)Cn4cc(C)c(=O)[nH]c4=O)nn3)c(OC(C)=O)c(C)c(C)c2O1` (centres undefined), the Activity came out at 14%.
The same measure for `O=C(CS)N[C@@H]1CCCC[C@H]1NC(=O)CS` (racemic): 14%; for `CC(=O)Oc1c(C)c(C)c2c(c1Cn1cc(CCC(=O)NCCN(CC(=O)NCCN(CC(=O)NCCN(CC(=O)NCCN(CC(=O)NCCN(CC(=O)NCCN(CC(=O)NCCN(CC(=O)NCCN(CC(=O)NCCN(CC(N)=O)C(=O)Cn3cnc4c(=O)[nH]c(N)nc43)C(=O)Cn3ccc(N)nc3=O)C(=O)Cn3cnc4c(N)ncnc43)C(=O)Cn3ccc(N)nc3=O)C(=O)Cn3cnc4c(=O)[nH]c(N)nc43)C(=O)Cn3cnc4c(N)ncnc43)C(=O)Cn3ccc(N)nc3=O)C(=O)Cn3cc(C)c(=O)[nH]c3=O)C(=O)Cn3cc(C)c(=O)[nH]c3=O)nn1)CCC(C)(CCCC(C)CCCC(C)CCCC(C)C)O2` (centres undefined): 17%.
The same measure for `Cc1c(C)c2c(c(C)c1O)CCC(C)(C(=O)NCCN(CC(=O)NCCN(CC(=O)NCCN(CC(=O)NCCN(CC(=O)NCCN(CC(=O)NCCN(CC(=O)NCCN(CC(=O)NCCN(CC(=O)NCCN(CC(N)=O)C(=O)Cn1cnc3c(=O)[nH]c(N)nc31)C(=O)Cn1ccc(N)nc1=O)C(=O)Cn1cnc3c(N)ncnc31)C(=O)Cn1ccc(N)nc1=O)C(=O)Cn1cnc3c(=O)[nH]c(N)nc31)C(=O)Cn1cnc3c(N)ncnc31)C(=O)Cn1ccc(N)nc1=O)C(=O)Cn1cc(C)c(=O)[nH]c1=O)C(=O)Cn1cc(C)c(=O)[nH]c1=O)O2` (centres undefined): 16%.
